Results taken from ChEMBL document CHEMBL3616411, “Discovery of 1-hydroxypyridine-2-thiones as selective histone deacetylase inhibitors and their potential application for treating leukemia” (Bioorg Med Chem Lett, 2015).

Tests used:
[1] = Cytotoxicity against HEK293 cells assessed as reduction in cell viability; type: cell-based; details: human
[2] = molecular target: Histone deacetylase 9 (Homo sapiens, UniProt Q9UKV0); assay: Inhibition of HDAC9 (unknown origin) using Boc-Lys(trifluoroacetyl)-AMC fluorogenic acetylated peptide substrate by fluorometric assay
Sequence of Histone deacetylase 9 (Q9UKV0 whole entry): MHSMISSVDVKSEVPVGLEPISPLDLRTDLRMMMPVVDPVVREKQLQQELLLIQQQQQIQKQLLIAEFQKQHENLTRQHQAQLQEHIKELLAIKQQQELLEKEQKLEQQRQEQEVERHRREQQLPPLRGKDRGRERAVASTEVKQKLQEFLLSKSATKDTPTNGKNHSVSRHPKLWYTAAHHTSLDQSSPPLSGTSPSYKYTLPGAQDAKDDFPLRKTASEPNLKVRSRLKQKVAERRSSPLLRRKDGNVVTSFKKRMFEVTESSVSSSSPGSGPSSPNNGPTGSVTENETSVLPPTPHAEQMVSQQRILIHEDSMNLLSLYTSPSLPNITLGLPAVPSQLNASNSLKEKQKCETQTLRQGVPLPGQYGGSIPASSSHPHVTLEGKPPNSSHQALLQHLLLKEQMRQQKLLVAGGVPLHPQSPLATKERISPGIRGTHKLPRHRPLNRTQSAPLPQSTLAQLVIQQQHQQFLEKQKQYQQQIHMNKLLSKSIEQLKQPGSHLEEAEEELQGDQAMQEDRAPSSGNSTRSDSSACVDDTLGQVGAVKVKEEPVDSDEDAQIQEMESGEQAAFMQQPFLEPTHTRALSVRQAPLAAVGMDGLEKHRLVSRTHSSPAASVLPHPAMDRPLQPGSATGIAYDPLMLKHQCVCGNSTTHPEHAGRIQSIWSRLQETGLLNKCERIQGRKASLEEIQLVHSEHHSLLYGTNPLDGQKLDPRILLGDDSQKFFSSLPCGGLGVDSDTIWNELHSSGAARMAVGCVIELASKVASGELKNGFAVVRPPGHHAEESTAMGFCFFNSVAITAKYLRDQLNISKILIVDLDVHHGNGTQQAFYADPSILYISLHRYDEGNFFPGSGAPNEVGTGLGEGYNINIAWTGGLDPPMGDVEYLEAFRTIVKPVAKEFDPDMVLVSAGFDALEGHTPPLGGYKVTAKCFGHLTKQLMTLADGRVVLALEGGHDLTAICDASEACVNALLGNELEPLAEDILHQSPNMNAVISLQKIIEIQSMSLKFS

[3] = molecular target: Histone deacetylase 1 (Homo sapiens, UniProt Q13547); assay: Inhibition of HDAC1 (unknown origin) using RHKK(Ac) fluorogenic acetylated peptide substrate by fluorometric assay
Sequence of Histone deacetylase 1 (Q13547 whole entry): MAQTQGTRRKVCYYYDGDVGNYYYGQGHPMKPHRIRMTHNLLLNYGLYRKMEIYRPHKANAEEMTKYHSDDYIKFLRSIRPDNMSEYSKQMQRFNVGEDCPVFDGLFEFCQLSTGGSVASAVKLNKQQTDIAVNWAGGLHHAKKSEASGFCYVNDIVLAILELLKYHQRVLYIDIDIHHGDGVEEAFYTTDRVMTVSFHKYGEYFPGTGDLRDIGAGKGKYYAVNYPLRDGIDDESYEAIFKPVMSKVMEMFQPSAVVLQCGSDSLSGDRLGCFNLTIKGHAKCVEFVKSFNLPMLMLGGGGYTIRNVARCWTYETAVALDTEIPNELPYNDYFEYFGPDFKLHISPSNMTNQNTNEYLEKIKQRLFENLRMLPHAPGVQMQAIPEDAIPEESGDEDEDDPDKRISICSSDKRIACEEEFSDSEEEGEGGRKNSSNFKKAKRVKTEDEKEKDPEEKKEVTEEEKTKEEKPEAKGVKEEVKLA

[4] = molecular target: Histone deacetylase 2 (Homo sapiens, UniProt Q92769)
Sequence of Histone deacetylase 2 (Q92769 whole entry): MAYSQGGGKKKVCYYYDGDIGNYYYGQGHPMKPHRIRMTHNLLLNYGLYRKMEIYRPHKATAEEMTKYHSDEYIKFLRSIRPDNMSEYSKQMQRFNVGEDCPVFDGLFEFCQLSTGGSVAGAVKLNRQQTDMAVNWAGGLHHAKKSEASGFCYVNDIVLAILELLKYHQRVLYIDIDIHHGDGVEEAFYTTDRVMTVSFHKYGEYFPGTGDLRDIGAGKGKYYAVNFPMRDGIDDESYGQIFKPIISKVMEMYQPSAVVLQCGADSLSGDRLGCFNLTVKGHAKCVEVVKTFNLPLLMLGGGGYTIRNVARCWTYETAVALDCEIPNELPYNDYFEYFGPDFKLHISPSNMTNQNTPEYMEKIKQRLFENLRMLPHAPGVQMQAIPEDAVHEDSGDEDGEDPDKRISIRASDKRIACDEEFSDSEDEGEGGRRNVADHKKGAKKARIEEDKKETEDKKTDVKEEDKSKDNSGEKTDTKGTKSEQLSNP

[5] = molecular target: Histone deacetylase 5 (Homo sapiens, UniProt Q9UQL6); assay: Inhibition of HDAC5 (unknown origin) using Boc-Lys(trifluoroacetyl)-AMC fluorogenic acetylated peptide substrate by fluorometric assay
Sequence of Histone deacetylase 5 (Q9UQL6 whole entry): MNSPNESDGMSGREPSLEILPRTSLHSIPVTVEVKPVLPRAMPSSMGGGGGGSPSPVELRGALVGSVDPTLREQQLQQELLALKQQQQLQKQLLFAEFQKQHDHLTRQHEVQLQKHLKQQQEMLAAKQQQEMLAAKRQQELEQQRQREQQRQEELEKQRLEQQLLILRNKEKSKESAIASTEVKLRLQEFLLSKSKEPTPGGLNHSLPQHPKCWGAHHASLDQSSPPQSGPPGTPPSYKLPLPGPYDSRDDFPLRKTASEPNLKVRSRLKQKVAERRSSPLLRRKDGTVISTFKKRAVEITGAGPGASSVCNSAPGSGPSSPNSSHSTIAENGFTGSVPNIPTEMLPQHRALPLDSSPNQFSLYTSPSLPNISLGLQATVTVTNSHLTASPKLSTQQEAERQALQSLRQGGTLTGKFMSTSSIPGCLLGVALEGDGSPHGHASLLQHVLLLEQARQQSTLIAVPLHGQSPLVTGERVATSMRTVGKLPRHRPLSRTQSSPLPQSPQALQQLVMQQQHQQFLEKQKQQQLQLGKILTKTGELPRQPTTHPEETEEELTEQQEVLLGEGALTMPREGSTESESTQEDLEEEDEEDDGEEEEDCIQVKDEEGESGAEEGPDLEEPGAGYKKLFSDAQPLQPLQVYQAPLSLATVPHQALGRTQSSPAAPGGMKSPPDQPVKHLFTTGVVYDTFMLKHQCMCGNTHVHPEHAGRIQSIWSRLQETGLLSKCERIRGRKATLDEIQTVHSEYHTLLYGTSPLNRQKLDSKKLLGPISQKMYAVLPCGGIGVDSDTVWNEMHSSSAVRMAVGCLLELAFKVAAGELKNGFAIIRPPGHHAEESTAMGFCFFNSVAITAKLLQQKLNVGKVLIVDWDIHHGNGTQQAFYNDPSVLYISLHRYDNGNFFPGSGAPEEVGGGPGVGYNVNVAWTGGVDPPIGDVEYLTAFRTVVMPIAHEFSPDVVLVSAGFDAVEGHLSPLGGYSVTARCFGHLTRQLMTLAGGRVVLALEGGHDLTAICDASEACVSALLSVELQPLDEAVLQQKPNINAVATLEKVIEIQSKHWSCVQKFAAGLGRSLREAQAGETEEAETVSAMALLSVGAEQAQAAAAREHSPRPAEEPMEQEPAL

[6] = tested on: U-937; assay: cells; type: functional, cell-based; details: Homo sapiens
[7] = molecular target: T1, Histone deacetylase 8 (Homo sapiens, UniProt Q9BY41); assay: Inhibition of HDAC8 (unknown origin) using RHK(Ac)K(Ac) fluorogenic acetylated peptide substrate by fluorometric assay
T1 sequence (Q9BY41 whole entry): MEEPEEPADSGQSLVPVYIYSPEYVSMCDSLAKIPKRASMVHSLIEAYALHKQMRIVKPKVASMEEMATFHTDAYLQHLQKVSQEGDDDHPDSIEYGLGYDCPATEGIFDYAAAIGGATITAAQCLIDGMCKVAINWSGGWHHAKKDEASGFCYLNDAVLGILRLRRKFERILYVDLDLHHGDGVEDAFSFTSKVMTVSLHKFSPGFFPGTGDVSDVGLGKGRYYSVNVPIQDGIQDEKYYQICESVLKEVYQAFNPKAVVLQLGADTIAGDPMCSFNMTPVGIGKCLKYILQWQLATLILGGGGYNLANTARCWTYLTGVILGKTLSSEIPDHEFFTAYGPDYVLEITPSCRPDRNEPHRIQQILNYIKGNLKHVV

[8] = tested on: THP-1; assay: cells; type: functional, cell-based; details: Homo sapiens
[9] = molecular target: Histone deacetylase 4 (Homo sapiens, UniProt P56524); assay: Inhibition of HDAC4 (unknown origin) using Boc-Lys(trifluoroacetyl)-AMC fluorogenic acetylated peptide substrate by fluorometric assay
Sequence of Histone deacetylase 4 (P56524 whole entry): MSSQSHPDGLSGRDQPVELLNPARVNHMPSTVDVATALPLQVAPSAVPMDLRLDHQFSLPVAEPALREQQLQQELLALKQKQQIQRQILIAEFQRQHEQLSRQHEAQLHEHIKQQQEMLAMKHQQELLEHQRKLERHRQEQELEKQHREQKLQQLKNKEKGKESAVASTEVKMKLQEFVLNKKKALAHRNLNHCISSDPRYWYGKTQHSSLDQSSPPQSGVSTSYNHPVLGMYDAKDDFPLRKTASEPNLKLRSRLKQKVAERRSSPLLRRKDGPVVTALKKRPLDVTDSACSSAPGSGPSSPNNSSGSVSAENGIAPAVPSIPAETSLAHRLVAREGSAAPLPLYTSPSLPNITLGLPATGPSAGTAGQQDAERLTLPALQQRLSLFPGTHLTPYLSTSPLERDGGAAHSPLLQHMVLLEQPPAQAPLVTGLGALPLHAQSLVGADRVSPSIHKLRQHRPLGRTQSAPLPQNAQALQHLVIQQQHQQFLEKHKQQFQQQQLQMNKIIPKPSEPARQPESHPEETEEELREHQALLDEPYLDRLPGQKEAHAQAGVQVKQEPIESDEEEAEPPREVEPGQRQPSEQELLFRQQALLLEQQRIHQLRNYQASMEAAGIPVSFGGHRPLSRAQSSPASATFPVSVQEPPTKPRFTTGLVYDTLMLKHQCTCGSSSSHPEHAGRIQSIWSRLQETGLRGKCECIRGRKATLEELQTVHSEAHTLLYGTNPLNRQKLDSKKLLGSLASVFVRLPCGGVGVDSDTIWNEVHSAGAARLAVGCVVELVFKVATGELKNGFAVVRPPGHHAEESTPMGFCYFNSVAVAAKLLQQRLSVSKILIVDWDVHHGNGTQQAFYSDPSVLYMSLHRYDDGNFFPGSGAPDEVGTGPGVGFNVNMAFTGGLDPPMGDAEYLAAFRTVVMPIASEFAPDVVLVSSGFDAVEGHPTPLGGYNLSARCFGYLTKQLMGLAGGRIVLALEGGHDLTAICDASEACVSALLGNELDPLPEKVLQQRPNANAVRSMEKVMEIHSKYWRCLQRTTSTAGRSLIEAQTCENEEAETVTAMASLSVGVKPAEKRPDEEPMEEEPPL

[10] = tested on: K562; assay: cells; type: functional, cell-based; details: Homo sapiens
[11] = molecular target: T2, Protein deacetylase HDAC6 (Homo sapiens, UniProt Q9UBN7); assay: Inhibition of HDAC6 (unknown origin) using RHKK(Ac) fluorogenic acetylated peptide substrate by fluorometric assay
T2 sequence (Q9UBN7 whole entry): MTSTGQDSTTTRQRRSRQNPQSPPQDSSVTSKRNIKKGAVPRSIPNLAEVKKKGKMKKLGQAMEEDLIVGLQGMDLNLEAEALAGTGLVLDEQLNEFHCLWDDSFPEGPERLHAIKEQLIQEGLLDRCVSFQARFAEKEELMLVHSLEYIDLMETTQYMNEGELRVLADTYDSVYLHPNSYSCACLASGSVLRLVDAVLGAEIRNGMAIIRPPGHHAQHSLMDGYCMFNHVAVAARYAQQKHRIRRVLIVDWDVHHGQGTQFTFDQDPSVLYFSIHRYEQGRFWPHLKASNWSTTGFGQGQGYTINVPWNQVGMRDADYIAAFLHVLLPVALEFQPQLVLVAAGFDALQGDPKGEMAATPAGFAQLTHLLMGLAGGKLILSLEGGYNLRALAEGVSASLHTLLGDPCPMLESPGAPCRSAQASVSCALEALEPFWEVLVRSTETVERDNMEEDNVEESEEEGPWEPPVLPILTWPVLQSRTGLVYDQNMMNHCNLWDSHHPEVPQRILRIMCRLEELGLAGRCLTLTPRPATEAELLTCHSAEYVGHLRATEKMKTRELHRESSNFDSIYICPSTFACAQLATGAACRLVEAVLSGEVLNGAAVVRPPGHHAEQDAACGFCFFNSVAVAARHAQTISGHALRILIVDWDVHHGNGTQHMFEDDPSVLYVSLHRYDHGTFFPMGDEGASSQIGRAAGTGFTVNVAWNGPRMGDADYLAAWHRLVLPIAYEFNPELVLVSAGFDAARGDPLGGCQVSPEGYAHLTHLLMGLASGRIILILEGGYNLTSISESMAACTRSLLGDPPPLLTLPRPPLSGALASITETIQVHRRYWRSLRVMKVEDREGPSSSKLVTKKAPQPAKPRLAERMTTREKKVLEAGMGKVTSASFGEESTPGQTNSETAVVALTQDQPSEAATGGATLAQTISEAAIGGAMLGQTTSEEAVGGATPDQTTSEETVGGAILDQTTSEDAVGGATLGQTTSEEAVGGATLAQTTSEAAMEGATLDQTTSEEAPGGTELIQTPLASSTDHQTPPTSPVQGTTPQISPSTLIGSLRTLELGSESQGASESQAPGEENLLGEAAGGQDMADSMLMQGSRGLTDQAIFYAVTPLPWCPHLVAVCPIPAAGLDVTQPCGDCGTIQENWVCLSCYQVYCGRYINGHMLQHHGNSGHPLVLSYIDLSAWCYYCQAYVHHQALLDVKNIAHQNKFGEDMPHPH

[12] = cells; type: functional, cell-based; details: Homo sapiens, IR-K562
[13] = in vitro; details: human, HEK293 cells (CC50) versus U937 cells (IC50)
[14] = Cytotoxicity against imatinib resistant human IR-K562 cells assessed as cell viability at 250 nM incubated for 1 day (reference value: 73.9%); type: functional; details: IR-K562, 24 h, read-out: Activity
[15] = Cytotoxicity against imatinib resistant human IR-K562 cells assessed as cell viability at 250 nM incubated for 3 days (reference value: 79.5%); type: functional; details: IR-K562, 72 h, read-out: Activity
[16] = in vitro; details: human, HEK293 cells (CC50) versus THP1 cells (IC50)
[17] = in vitro; details: human
[18] = in vitro; details: human, HEK293 cells (CC50) versus K562 cells (IC50)
[19] = Cytotoxicity against imatinib resistant human IR-K562 cells assessed as cell viability at 250 nM incubated for 8 days (reference value: 89.4%); type: functional; details: IR-K562, 192 h, read-out: Activity
[20] = Cytotoxicity against imatinib resistant human IR-K562 cells assessed as cell viability at 250 nM incubated for 5 days (reference value: 86.7%); type: functional; details: IR-K562, 120 h, read-out: Activity

Compound: O=C(CCCCCCC(=O)Nc1ccccc1)NO [VORINOSTAT]
- CC50 [1]: 100 µM

Compound: C[C@@H](NC(=O)c1cccc(=S)n1O)C(=O)O
- IC50 [2]: 58 µM
- IC50 [3]: 270 µM
- IC50 [4]: 400 µM
- IC50 [5]: 37 µM
- IC50 [6]: 25 µM
- IC50 [7]: 0.98 µM
- IC50 [8]: 2.2 µM
- IC50 [9]: 100 µM
- IC50 [10]: 3.7 µM
- IC50 [11]: 4.2 µM
- IC50 [12]: 18 µM

Compound: O=C(N[C@@H](C(=O)O)c1ccccc1)c1cccc(=S)n1O
- IC50 [2]: 34 µM
- IC50 [3]: 93 µM
- IC50 [4]: 95 µM
- IC50 [5]: 27 µM
- IC50 [6]: 57 µM
- IC50 [7]: 1.2 µM
- IC50 [8]: 6.4 µM
- IC50 [9]: 64 µM
- IC50 [10]: 8.7 µM
- CC50 [1]: 76 µM
- IC50 [11]: 8.8 µM
- IC50 [12]: 24 µM

Compound: O=C(O)c1cccc(=S)n1O
- IC50 [2]: 47 µM
- IC50 [3]: 43 µM
- IC50 [4]: 710 µM
- IC50 [5]: 35 µM
- IC50 [6]: 75 µM
- IC50 [7]: 3.3 µM
- IC50 [8]: 25 µM
- IC50 [9]: 71 µM
- IC50 [10]: 18 µM
- CC50 [1]: 97 µM
- IC50 [11]: 0.15 µM
- IC50 [12]: 52 µM

Compound: Cc1ccc(NC(=O)c2ccc(CN3CCN(C)CC3)cc2)cc1Nc1nccc(-c2cccnc2)n1 [IMATINIB]
- selectivity ratio [13]: 0.44
- viability at […] [14]: 47%
- IC50 [6]: 19 µM
- viability at […] [15]: 58.7%
- selectivity ratio [16]: 0.34
- selectivity ratio [17]: 7.6
- IC50 [8]: 25 µM
- selectivity ratio [18]: 140
- viability at […] [19]: 71.1%
- viability at […] [20]: 65.1%
- IC50 [10]: 0.06 µM
- CC50 [1]: 8.4 µM
- IC50 [12]: 1.1 µM

Compound: Cc1nc(Nc2ncc(C(=O)Nc3c(C)cccc3Cl)s2)cc(N2CCN(CCO)CC2)n1 [DASATINIB]
- selectivity ratio [13]: < 0.1
- selectivity ratio [16]: 2.6
- selectivity ratio [17]: 8.4
- IC50 [8]: 6 µM
- selectivity ratio [18]: 200
- IC50 [10]: 0.08 µM
- CC50 [1]: 16 µM
- IC50 [12]: 1.9 µM
